Laboratory results published in ChEMBL document CHEMBL3988442, “University of Dundee, Small-Polar-MMV Screening Library” (2021).
Values joined by “and” are separate entries in the source; they are usually repeats but may differ in a detail not shown here. Identical values can stand only once.

What was measured:
[1] = target: T1, Coenzyme A biosynthesis bifunctional protein CoaBC (Mycobacterium tuberculosis (strain ATCC 25618 / H37Rv), UniProt P9WNZ1); assay: Biomol Green assay for MtCoaBC inhibitor, OD650 read; assay type: functional
T1 sequence (P9WNZ1 whole entry): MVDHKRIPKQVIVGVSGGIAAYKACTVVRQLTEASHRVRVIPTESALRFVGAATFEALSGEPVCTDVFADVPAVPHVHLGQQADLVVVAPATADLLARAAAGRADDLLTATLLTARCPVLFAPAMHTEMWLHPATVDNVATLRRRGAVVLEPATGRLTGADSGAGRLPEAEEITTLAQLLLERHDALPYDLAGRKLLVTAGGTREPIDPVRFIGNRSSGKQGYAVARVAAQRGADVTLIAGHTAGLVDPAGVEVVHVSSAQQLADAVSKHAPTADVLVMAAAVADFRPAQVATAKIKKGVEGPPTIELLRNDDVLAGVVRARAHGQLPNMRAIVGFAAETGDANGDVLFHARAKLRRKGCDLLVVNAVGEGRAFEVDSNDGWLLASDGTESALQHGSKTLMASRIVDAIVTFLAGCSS

Leishmania donovani = assay: Leishmania intramacrophage assay; assay type: functional, organism-based; settings: for IC50: Leishmania donovani
Plasmodium falciparum = assay: Calibr Malaria Delayed Death Assay SOP; assay type: functional, organism-based; settings: for IC50: Plasmodium falciparum
[2] = In vitro enzyme assay to detect hydrolysis of chlorophenol red-beta-D-[…] directly proportional to the number of Toxoplasma stably expressing beta-galactosidase; assay type: functional, organism-based, Toxoplasma gondii; settings: for IC50: Toxoplasma gondii
[3] = microbe, parasite or virus in culture; settings: Mycobacterium tuberculosis, 96 h, read-out: pIC50 (converted)
[4] = microbe, parasite or virus in culture; settings: Mycobacterium tuberculosis, 72 h, read-out: pIC50 (converted)
Schistosoma mansoni = assay: High throughput screening of compounds against Schistosoma mansoni motility; assay type: functional; set-up: dose or concentration left out as unconfirmed
Tryptophan--tRNA ligase = Tryptophan--tRNA ligase (Mycobacterium tuberculosis (strain ATCC 25618 / H37Rv), UniProt P9WFT3); assay: Biochemical assay for Mt-TrpRS; assay type: functional
Histidine--tRNA ligase = target: T2, Histidine--tRNA ligase (Leishmania infantum, UniProt A4I591); assay: Leishmania infantum Histidine tRNA synthetase (LdHisRS); assay type: functional
T2 sequence (A4I591 whole entry): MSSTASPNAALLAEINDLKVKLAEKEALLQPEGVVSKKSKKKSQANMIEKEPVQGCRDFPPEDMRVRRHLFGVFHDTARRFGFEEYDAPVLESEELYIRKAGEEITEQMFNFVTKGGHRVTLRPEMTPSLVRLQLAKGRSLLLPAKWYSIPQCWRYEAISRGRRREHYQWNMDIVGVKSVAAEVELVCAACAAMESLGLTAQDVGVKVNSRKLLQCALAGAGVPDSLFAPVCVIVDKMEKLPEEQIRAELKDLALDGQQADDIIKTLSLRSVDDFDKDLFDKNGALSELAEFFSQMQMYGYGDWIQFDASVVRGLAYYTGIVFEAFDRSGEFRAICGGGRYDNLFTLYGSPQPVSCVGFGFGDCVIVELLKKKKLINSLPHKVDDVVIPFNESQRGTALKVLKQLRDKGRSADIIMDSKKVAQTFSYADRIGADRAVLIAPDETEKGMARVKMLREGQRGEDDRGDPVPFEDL

ClpP1P2 = ClpP1P2 (Mycobacterium tuberculosis (strain ATCC 25618 / H37Rv), UniProt P9WPC3+P9WPC5); assay: in vitro assay to detect presence of AMC directly proportional to the activity of ClpP1P2. GHDDI collaboration.; assay type: functional

SMILES	pIC50 (Leishmania donovani)	pIC50 (Plasmodium falciparum)	IC50 (Plasmodium falciparum)	IC50 (Leishmania donovani)	also measured
Cc1nonc1OCCNC(=O)COc1ccc(F)cc1F	–	–	–	–	IC50 [1]: > 30.2 µM
Cc1nc2c(c(=O)[nH]1)CN(Cc1ccc3c(c1)CCCN3C)CC2	–	–	–	–	IC50 [1]: > 30.2 µM
CN(C)c1ccc(C(=O)N2CCC(c3cc4cnccc4[nH]3)CC2)cc1	–	–	–	–	IC50 [1]: > 30.2 µM
COc1c(C)cc(CNCc2ccnc(N3CCOCC3)c2)cc1C	–	–	–	–	IC50 [1]: > 30.2 µM
O=C(CN1CCN(C(=O)c2ccccc2)CC1)Nc1ncc(Br)cc1Br	–	–	–	–	IC50 [1]: > 30.2 µM
CCC[C@@H]1CN(Cc2c[nH]nc2-c2ccc(OC)cc2)C[C@H]1NC(C)=O	–	–	–	–	IC50 [1]: > 30.2 µM
O=S(=O)(c1cccc(F)c1)N1C[C@@H]2COC[C@]2(COCC2CC2)C1	–	–	–	–	IC50 [1]: > 30.2 µM
CCC1CCCCN1C(=O)Cn1nc(-c2ccc(C)o2)cc(N)c1=O (stereo not given)	–	–	–	–	IC50 [1]: > 50.1 µM
Cc1nnc2n1CC(CNCc1nc(-c3cccs3)no1)CC2 (stereo not given)	–	–	–	–	IC50 [1]: > 30.2 µM
Cn1cnc(S(=O)(=O)NCCN2CCCCCC2)c1Cl	–	–	–	–	IC50 [1]: > 30.2 µM
Cc1ccc(-c2nc(CNC(C)CCO)[nH]c2-c2ccccn2)cc1 (stereo not given)	4.821 and 4.459	5.824	1.25 µM	–	–
CN(Cc1ccc(F)cc1)C(=O)NCc1nnc2n1CCC2	–	–	–	–	IC50 [1]: > 30.2 µM
CC(C)COCC(NC(=O)c1cnccn1)c1ccco1 (stereo not given)	–	–	–	–	IC50 [1]: > 30.2 µM
Cc1cc(NC(=O)C2CCN(c3ncccc3C#N)CC2)no1	–	–	–	–	IC50 [1]: > 50.1 µM
CC[C@@H](Cn1ncc2ccccc2c1=O)NC(=O)c1ccco1	–	–	–	–	IC50 [1]: > 30.2 µM
CSc1nc(C)cc(N2CCC(c3ncc[nH]3)CC2)n1	–	–	–	–	IC50 [1]: > 30.2 µM
CCc1cc(NCCN2CCNC2=O)n2nccc2n1	–	–	–	–	IC50 [1]: > 30.2 µM
CCN(CC)CCNC(=O)c1ccc(-n2ccc3ccccc32)s1	–	–	–	11.2 µM	IC50 [2]: 7.53 µM
NC(=O)C1CCN(S(=O)(=O)c2cnn(-c3ccccc3)c2)C1 (stereo not given)	–	–	–	–	IC50 [1]: > 30.2 µM
COc1cc(OC)cc(-c2cccc3c2OC(CN)C3)c1 (stereo not given)	4.734	–	–	18.3 µM	IC50 [3]: 20 µM; IC50 [4]: 1.33 µM
CC(C)c1nccc(C2(c3ccccc3Cl)CCNCC2)n1	–	6.087	0.789 µM	26.3 µM	–

SMILES	pIC50 (Leishmania donovani)	pIC50 (Plasmodium falciparum)	IC50 (Plasmodium falciparum)	IC50 (Leishmania donovani)	also measured
Clc1ccccc1C1(c2ccnc(C3CCCC3)n2)CCNCC1	–	6.419	0.399 µM	6.68 µM	pIC50 [2]: 5.147; IC50 [2]: 13 µM
Clc1ccccc1C1(c2ccnc(C3CC3)n2)CCNCC1	–	6.224	0.536 µM	23.9 µM	pIC50 [2]: 4.703; IC50 [2]: 15.4 µM
Cc1c(C(=O)N2CCC(N3CCCCC3)CC2)n(C)c2ccc(Cl)cc12	4.818	6.009	1.07 µM	13.5 µM	–
CCSc1cc(C(=O)NCc2ccccc2O)ccn1	–	–	–	> 50.1 µM	Percent Effect (Schistosoma mansoni): -44.04%
N[C@@H]1CCC[C@@H](Oc2ccc(F)cc2Oc2cccc(F)c2)[C@@H]1O	–	–	–	> 50.1 µM	IC50 (Tryptophan--tRNA ligase): > 195 µM
Cc1ccc(CNC(CN2CCN(C)CC2)c2ccccc2)cc1 (stereo not given)	5.055	6.589	0.247 µM	12.8 µM	–
CC(O)CN1CCC(CNCc2ccc(OC(F)(F)F)cc2)CC1 (stereo not given)	5.001	5.989	0.959 µM	9.27 µM	–
Cc1nc(CCN)cc(N2CCC(O)(c3ccc(Cl)cc3)CC2)n1	–	–	–	> 50.1 µM	IC50 (Histidine--tRNA ligase): 46.4 µM and 42.8 µM
C1Cc2nc(CCNc3nc(C4CC4)nc4c3CCNCC4)sc2C1	5.261 and 5.322	–	–	5.69 µM	IC50 [2]: 12.6 µM
CN1CCC(N(Cc2ccco2)S(=O)(=O)c2ccc(Br)cc2Cl)CC1	4.643	6.36	0.473 µM	20.9 µM	–
Cc1nc(C2CCN(C)CC2)cc(N2CCOc3ccc(Cl)cc3C2)n1	4.959	–	–	14.9 µM	IC50 [3]: > 50.1 µM; IC50 [4]: 32.6 µM
O=C(NCCCN1CCCCC1)c1ccc(-n2ccc3ccccc32)s1	5.277	–	–	7.13 µM	IC50 [2]: 6.04 µM; IC50 [3]: > 50.1 µM; IC50 [4]: 28.1 µM
COc1cccc(CNC(CN2CCN(C)CC2)c2ccccc2)c1 (stereo not given)	4.672	6.596	0.308 µM	22 µM	–
CN1CCN(CC(NCc2ccc(F)c(F)c2)c2ccccc2)CC1 (stereo not given)	–	6.278	0.618 µM	11.3 µM	IC50 [3]: > 50.1 µM; IC50 [4]: 17.1 µM
CC(C)(C)c1nccc(C2(c3ccccc3Cl)CCNCC2)n1	–	6.385	0.667 µM	7.19 µM	pIC50 [2]: 4.939 and 5.272
CCN(CCN(C)C)c1nc(CCN)nc2sc(C)c(C)c12	–	5.974	1.21 µM	> 50.1 µM	IC50 (Histidine--tRNA ligase): 49.3 µM and 36.3 µM
Cc1cc2nc(-c3cn(C4CCNCC4)nn3)[nH]c2cc1C	4.64	6.549	0.273 µM	21.2 µM	–
Cc1nccn1CCCn1cncc1-c1ccc2c(c1)CC(C)N2C (stereo not given)	–	–	–	> 50.1 µM	IC50 (Histidine--tRNA ligase): 20.5 µM and 22.8 µM
Cc1cc(N2CCCCCC2)n2nc(C)c(C)c2n1	–	–	–	> 50.1 µM	Percent Effect (Schistosoma mansoni): -21.59%
O=C(C1CNCCO1)N1CCCC(c2ccccc2)(c2ccccc2)C1 (stereo not given)	4.781	6.124	0.975 µM	11.6 µM	–
N[C@@H]1CCC[C@@H](Oc2ccc(F)cc2Oc2ccccc2)[C@@H]1O	4.886	6.155	0.602 µM	11.2 µM	IC50 (Tryptophan--tRNA ligase): > 195 µM

SMILES	pIC50 (Leishmania donovani)	pIC50 (Plasmodium falciparum)	IC50 (Plasmodium falciparum)	IC50 (Leishmania donovani)	also measured
Cc1cccc(CNC(CN2CCN(C)CC2)c2ccccc2)c1 (stereo not given)	5.046	6.605	0.185 µM	6.36 µM	–
c1ccc(C2CCCN(c3ncnc4c3CCNC4)CC2)cc1 (stereo not given)	4.655	–	–	18.1 µM	IC50 [3]: > 50.1 µM; IC50 [4]: > 50.1 µM
CCOc1c(Cl)cc(Cl)cc1CNCCCn1ccnc1	–	–	–	16 µM	IC50 (Histidine--tRNA ligase): > 100 µM
CC(C)c1nc(-c2cc(C(=O)NCCN(C)C)c3ccccn23)cs1.O=C(O)C(F)(F)F	4.846	–	–	18.9 µM	IC50 [3]: > 50.1 µM; IC50 [4]: > 50.1 µM
NCC1CCCN(c2nc(-c3ccccc3)nc3c2CCNCC3)C1 (stereo not given)	–	–	–	27.2 µM	IC50 [3]: 17.7 µM; IC50 [4]: 11.3 µM
Cc1nc(CCN)cc(N2CCOc3ccc(Cl)cc3C2)n1	4.773	–	–	11.2 µM	IC50 (Histidine--tRNA ligase): 41.7 µM and 34.2 µM
Cc1cc(N2CCC(N(C)C(=O)c3ccccc3)CC2)nc(C)n1	–	–	–	> 50.1 µM	Percent Effect (Schistosoma mansoni): -7.781%
COc1ccc(C2=Nn3c(CCN)nnc3-c3ccccc3C2)cc1	4.676	–	–	17.9 µM	IC50 (Histidine--tRNA ligase): > 100 µM
Cc1ccc2[nH]c(-c3cn(C4CCNCC4)nn3)nc2c1C	4.614	6.454	0.325 µM	20.4 µM	–
CC(O)CN1CCC(CNCc2cccc(OC(F)(F)F)c2)CC1 (stereo not given)	4.85	6.17	0.909 µM	16.8 µM	–
Cc1ccc(-c2cc(CNc3ncnc4c3CCNCC4)no2)cc1	4.865	–	–	8.55 µM	IC50 [2]: 9.58 µM
c1ccc(C2=NOC3(CCN(Cc4c[nH]c5ccccc45)CC3)C2)cc1	4.869	–	–	18.3 µM	pIC50 [2]: 5.08; IC50 [2]: 6.84 µM
Nc1nccc(N2CCC(c3cc(Cc4ccccc4)n[nH]3)CC2)n1	4.363	–	–	42 µM	pIC50 [2]: 4.837; IC50 [2]: 20.2 µM
Clc1ccccc1C1(c2ccnc(CC3CC3)n2)CCNCC1	4.801 and 4.355	6.68	0.268 µM	–	–
CCOC(=O)N1CCN(c2nc(CCN)nc3sc(C)c(C)c23)CC1	–	5.898	1.12 µM	> 50.1 µM	IC50 (Histidine--tRNA ligase): 21.8 µM and 19.6 µM
O=C(c1c[nH]cn1)N1CCC(F)(F)C2(CCN(c3cccc(F)c3)C2)C1 (stereo not given)	–	–	–	> 50.1 µM	IC50 [3]: > 50.1 µM; IC50 [4]: > 50.1 µM
CC(C)CNc1nc2c(cc1C(=O)NCC1CC1)CCNCC2	4.725	–	–	17.7 µM	IC50 (ClpP1P2): > 100 µM
Clc1ccccc1C1(c2ccnc(-c3ccncc3)n2)CCNCC1	4.623	6.636	0.264 µM	18.6 µM	–
CN(C)S(=O)(=O)c1ccc(-c2nc(C#N)c(NC3CCCCC3)o2)o1	–	–	–	> 50.1 µM	IC50 (ClpP1P2): > 100 µM
